Results on one molecule are retold here after patent US20110263539A1, “SHIP 1 MODULATOR COMPOUNDS” (THE UNIVERSITY OF BRITISH COLUMBIA, priority 2006, published 2011).

For one test, the system named is J774.1a macrophage cells. Description: Macrophage TNF-α NO assay (Assay 3). Further: key: a ‘+’ indicates a positive result for desired activity; a ‘−’ indicates a negative result for desired activity. The class given is cell-based. Particulars: 10 μg/ml test compound, LPS, 24 hr, Griess reagent. On the procedure:
Assay 3) Macrophage TNF-α NO assay. J774.1a macrophage cells were treated with 10 μg/ml of test compound dissolved in solvent for 40 minutes prior to the addition of LPS. Culture supernatants were collected after 24 hr. for determination of NO concentration using the Griess reagent.

In test [1] the test system is 100 protein kinase and phosphatase targets. Description: Profiling on 100 protein kinase and phosphatase targets. Particulars: 2 μM final concentration. It counts as biochemical. On the procedure:
Compound profiling activity was undertaken using 100 protein kinase and phosphatase targets by SignalChem (Richmond, BC, Canada. www.signalchem.com) against compound Compound 100 (2 μM final concentration). Protein kinase assays were performed in the presence of 50 μM ATP at 30° C. for 15 min. Protein phosphatase activities were determined using pNPP as substrate and were also performed at 37° C. for 15 min. The activity of the enzymes in the presence of Compound 100 was compared to that in the vehicle control and expressed as a % change in activity relative to that observed in the vehicle control. Changes in activity of <25% were not considered significant. Enzymes affected by Compound 100 are plotted in an expanded graph in FIG. 12B.

For the next test, the system named is plasma TNFα. Briefly: Mouse endotoxemia model (Assay 6). The class given is in vivo, C57B16 mice. Particulars: oral administration 30 min prior to LPS, 2 hrs. On the procedure: Assay 6) Mouse endotoxemia model. 6-8 week old C57B16 mice (VCHRI Mammalian Model of Human Disease Core Facility, Vancouver, BC) were orally administered the test compound 30 min prior to an IP injection of 2 mg/kg of LPS (E. Coli serotype 0111:B4, Sigma, Oakville, Ont). Blood was drawn 2 hrs later for determination of plasma TNFα by ELISA.
Mouse endotoxemia model. 6-8 week old C57B16 mice (VCHRI Mammalian Model of Human Disease Core Facility, Vancouver, BC) were orally administered the indicated dose of AQX-016A, Compound 100 or dexamethasone or carrier 30 min prior to an IP injection of 2 mg/kg of LPS (E. Coli serotype 0111:B4, Sigma, Oakville, Ont). Blood was drawn 2 hrs later for determination of plasma TNFα by ELISA. Results are representative of 3 independent experiments. (FIGS. 7D and 9)
AQX-016A's ability to provide protection by inhibiting inflammatory reactions in vivo was assessed in mouse models. The mouse model of endotoxic shock involves intraperitoneal (IP) injection of bacterial LPS and measurement of serum TNFα levels 2 hrs later. We orally administered AQX-016A or the steroidal drug dexamethasone to mice 30 min prior to the LPS challenge.

Another test concerns SHIP C2 domain. Briefly: Scintillation proximity assay, C2 domain. The class given is binding. Particulars: [3H]-Compound 100, SPA beads. As for the experimental part:
(§1) Compound 100 was radiolabelled with tritium by GE Healthcare (Piscataway, N.J.) to a specific activity of 42 Ci/mmole. Copper chelate (His-Tag) YSi SPA Scintillation Beads (GE Healthcare, Piscataway, N.J.) were diluted in 0.25% BSA/TBS to 1.5 mg/mL and recombinant, His6-tagged protein added at the indicated concentrations: wild-type (1 μM), ΔC2 SHIP enzyme (1 pM) or C2 domain (10 nM). Protein was allowed to bind 1 h at 23° C., and 250 μg of beads were aliquoted per well of a 96-well plate. 5 μCi of [^3H]-Compound 100 was added per well, the plate gently agitated for 30 min and the amount of bead associated radioactivity quantified by counting in a Wallac BetaPlate plate scintillation counter.
(§2) Isolated recombinant, His6-tagged C2 domain was expressed and its PI-3,4-P2 binding ability was determined using protein lipid overlay assays. Purified C2 domain was incubated with membrane strips spotted with PI-3,4-P2 and bound protein detected using an anti-His6 antibody. As shown in FIG. 11C the C2 domain bound PI-3,4-P2 and this binding was inhibited by Compound 100, consistent with both Compound 100 and PI-3,4-P2 interacting with the C2 domain at a common binding site.

In the next test the test system is MM cell lines. Briefly: In vitro Multiple Myeloma (MM) assay (Assay 7). On Assay Number 7: In vitro Multiple Myeloma (MM) assay: key: a ‘+’ indicates a positive result for desired activity; a ‘−’ indicates a negative result for desired activity. The class given is cell-based.
The test system of a further test is wild-type SHIP. Briefly: Scintillation proximity assay, wild-type and ΔC2 SHIP. The class given is binding. Particulars: [3H]-Compound 100, SPA beads. As for the experimental part:
as §1, §2

Consider `Cc1cc(O)cc2c1[C@]1(C)CCC3C(C)(C)CCC[C@]3(C)[C@H]1C2` (stereo partly shown) [Compound 100], for which the “Assay Number 3: Macrophage NO” value in the test on J774.1a macrophage cells is listed as “+”. Also, in test [1], the off-target effects entry is recorded as “minimal off-target effects”. Further, the “LPS-induced plasma/serum TNFα levels” value in the test with plasma TNFα is “efficiently inhibited”. In addition, the “binding to C2 domain” value with SHIP C2 domain is given as “directly bind the C2 domain”. Besides, the “Assay Number 7: In vitro Multiple Myeloma (MM) assay” value with MM cell lines is “+”. In the test with MM cell lines (viable cell numbers, trypan blue exclusion), the MM proliferation result is “inhibits MM proliferation at lower concentrations than AQX-016A”. In the test with wild-type SHIP, the “binding to wild-type SHIP vs SHIP lacking C2 domain” value was “bound to wild-type SHIP but not to SHIP lacking its C2 domain”.
